Reference: PMC12362585, “Development and Preclinical Characterization of [^18F]H3-2406 and [^18F]H3-2407 for Positron Emission Tomography Imaging of the Histamine Subtype‑3 Receptor” (Journal of Medicinal Chemistry, 2025)

What was measured:
H3R [1] = molecular target: T1, H3R (Homo sapiens, UniProt Q9Y5N1); assay: H3R competitive radioligand binding assay using [^3H]AZ13582963; details: competitive binding vs [^3H]AZ13582963; for Ki: read-out: H3R K i
T1 construct: Gifford Bioscience (contract laboratory that ran the assay)

[2] = Log D by shake-flask method; format: physicochemical; details: n-octanol/PBS
Description: To evaluate the binding affinities of compounds 1–9, competitive radioligand binding assays were conducted using [^3H]-AZ13582963 [4-(1S,2S)-2-(4-cyclobutylpiperazine-1-carbonyl)-cyclopropyl)-N-methyl-[2-^3 H]-benzamide]. […]. […]. Further, ACD Percepta predictions indicated these compounds are likely to cross the blood-brain barrier (BBB), as indicated by a log BB > −1 and a multiparameter optimization (MPO) score >4.0. High selectivity toward H3R over other CNS targets is essential for effective H3R PET imaging. Therefore, off-target screenings of compounds 2, 3, and 4 were conducted against various CNS receptors, G protein-coupled receptors (GPCRs), transporters, and ion channels at 10 μM (Figure S1). […]. Sigma-1 receptors, crucial for ion channel function and associated with learning, memory, and pain, , have shown synergy with H3R antagonists, including PF-03654746 and ABT-239, potentially enhancing in vivo efficacy.
The lipophilicity was measured according to previously reported methods. , In brief, PBS and n-octanol were premixed prior to the experiment. A solution containing 0.2 MBq of [^18F]3 or [^18F]4, PBS (3 mL) and n-octanol (3 mL) were prepared in a vial and vortexed for 5 min. The PBS and n-octanol layers were then separated and transferred into a centrifuge tube, followed centrifugation at 12,000 rpm for 5 min. Then PBS (0.5 mL) and n-octanol (0.05 mL) were weight and measured the radioactivity on a γ counter (PerkinElmer Wizard). The Log D values of [ ^18F]3 and [^18F]4 were calculated using the following formula: LogD=Log[(radioactivityn‐octanol/weightn‐octanol)/(radioactivityPBS/weightPBS)]

sigma-1 receptor [3] = molecular target: T2, sigma-1 receptor (Homo sapiens, UniProt Q99720); assay: Off-target screening at 10 μM, sigma-1; format: binding
sigma-1 receptor [4] = molecular target: T2, sigma-1 receptor; assay: sigma 1 binding assay; details: for Ki: read-out: sigma-1 K i; for selectivity of H3R over sigma-1: ratio of sigma-1 K i to H3R K i
[5] = molecular target: 5-hydroxytryptamine receptor 2A (5-HT2A) (Homo sapiens, UniProt P28223); assay: Off-target screening at 10 μM, 5-HT2A; format: binding; details: read-out: inhibition of 5-HT2A
[6] = test system: CNS receptors, GPCRs, transporters, and ion channels; assay: Off-target screening panel, CNS target selectivity; format: binding; details: H3R against most CNS targets
5-HT2C [7] = molecular target: T3, 5-HT2C (Homo sapiens, UniProt P28335); assay: 5HT2C binding assay; details: read-out: 5-HT2C K i
T3 sequence (P28335 33-458): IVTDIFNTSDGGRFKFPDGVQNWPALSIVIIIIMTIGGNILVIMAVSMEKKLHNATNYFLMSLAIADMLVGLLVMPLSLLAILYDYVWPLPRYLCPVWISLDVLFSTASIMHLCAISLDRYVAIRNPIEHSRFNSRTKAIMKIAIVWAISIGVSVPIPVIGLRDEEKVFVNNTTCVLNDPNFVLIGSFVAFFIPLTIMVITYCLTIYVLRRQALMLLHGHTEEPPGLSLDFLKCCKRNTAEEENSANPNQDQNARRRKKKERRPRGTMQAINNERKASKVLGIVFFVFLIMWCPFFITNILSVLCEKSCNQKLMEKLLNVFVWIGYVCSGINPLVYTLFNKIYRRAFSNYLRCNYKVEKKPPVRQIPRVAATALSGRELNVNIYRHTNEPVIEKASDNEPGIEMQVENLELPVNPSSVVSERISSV

sigma-2 = sigma-2 (Homo sapiens, UniProt Q5BJF2); assay: Off-target screening at 10 μM, sigma-2; format: binding
5-HT2C [8] = molecular target: T3, 5-HT2C; assay: Off-target screening at 10 μM, 5-HT2C; format: binding; details: read-out: inhibition of 5-HT2C
H3R [9] = molecular target: T4, H3R (Rattus norvegicus, UniProt Q9QYN8); assay: In vitro autoradiography on rat brain sections; format: binding, SD rat
T4 construct: The brains of SD rat were sectioned into 15 μm slices; from tissue; host or cells: SD rat brain sections
Description: To validate the target specificity and selectivity, in vitro autoradiography experiments were conducted using [^18F]3 and [^18F]4 on rat brain sections. […] Furthermore, pretreatment with unlabeled compound 3 (10 μM) led to a signal reduction of over 90% in the brain. […] This discrepancy is likely attributable to additional off-target binding of [^18F]3, which is further supported by high uptake in the cerebellum – a region with low H3R expression. […] The high uptake in the cerebellum may be attributed to nonspecific binding to unidentified CNS targets. […] Nonetheless, the results support further in vivo PET evaluation to better understand their binding profiles and evaluate their potential for H3R imaging – particularly in regions with low sigma-1 abundance.
The ARG was measured according to previously reported methods. , The brains of SD rat were sectioned into 15 μm slices and stored in −80 °C. For each experiment, the brain slices allowed them to warm to room temperature and then incubated in Tris-HCl buffer (50 mM, containing 0.1% bovine serum albumin) for 10 min. The slices were incubated with [^18F]3 or [^18F]4 (0.037 MBq/mL) in the presence of either DMSO (baseline study), GSK189254 (10 μM, blocking study), and unlabeled 3 or 4 (10 μM, blocking study) at room temperature for 30 min. Following incubation, the brain slices were washed three times with cold Tris-HCl buffer (50 mM) for 5 min each, and then dipped in water 2 times for 5 s. The brain slices were dried under cold air and exposed to a Phosphor Screen (BAS IP MS2025, Cytiva) for 2 h. The radioactivity and imaging were captured using an Amersham Typhoon 5 (Cytiva) and the data were analyzed using ImageJ software.

H3R [10] = molecular target: T5, H3R (Mus musculus, UniProt P58406); assay: Dynamic PET imaging in CD1 mice, baseline and H3R antagonist blocking; format: in vivo
T5 construct: dynamic PET imaging studies were conducted in CD1 mice; from tissue; host or cells: brain of living CD1 mice
Description: To elucidate the in vivo brain uptake of [^18F]3 and [^18F]4, dynamic PET imaging studies were conducted in CD1 mice (an outbred strain of immunocompetent mice commonly used for pharmacokinetic and biodistribution studies) for 60 min. The results, which include summed PET images (0–60 min), whole-brain time-activity curves (TACs), and area under the curve (AUC) for both radioligands, are depicted in Figures and . At baseline, [^18F]3 rapidly crossed the BBB following intravenous injection, reaching peak whole-brain uptake with a standardized uptake value (SUV) value of 2.4 at 2.3 min. This was followed by a gradual washout and reached a SUV of 1.87 by 60 min. To evaluate the binding characteristics of [^18F]3, elective H3R antagonists with distinct structural scaffolds, GSK189254, enerisant, and cipralisant, were used as blocking agents. […] Quantification of specific tracer binding was performed using volume of distribution (V T) values, derived from compartmental modeling and an image-derived input function (IDIF). […] While these findings support the utility of [^18F]3 for in vivo studies, we acknowledge the inherent limitations of IDIF, including the lack of metabolite correction and potential inaccuracies in capturing early phase kinetics.
PET imaging was conducted following previously reported methods. CD1 mice (5–6 weeks) were anesthetized with 1.5% (v/v) isoflurane during the scan. A dose of 3.0 MBq of [^18F]3 or [^18F]4 was intravenously injected into the tail vein, and a dynamic scan was acquiring using a PET scanner (MOLECUBES, beta-cube) for 60 min. In the blocking studies, GSK189254 (3 mg/kg) in 0.1 mL of saline containing 5% ethanol and 5% Tween-80 was preinjected for 10 min prior to the injection of PET radioligands. The results were reconstructed and analyzed by PMOD 4.3 software.
Quantification of specific tracer binding was performed using volume of distribution (VT) values, derived from compartmental modeling and an image-derived input […]
significant reduction in H3R-rich brain regions such as the cortex and striatum under blocking conditions with GSK189254, enerisant, and cipralisant, confirming the specificity of [18F]3 binding (Table S1).
Table S1. Estimation of V T values by Logan analysis in mice with [ 18F]3 at baseline, GSK189254-blocking (3 mg/kg), enerisant-blocking (3 mg/kg), and cipralisant-blocking (3 mg/kg) conditions.
Group Baseline GSK189254 Enerisant Cipralisant blocking blocking blocking

T1 sequence (Q9Y5N1 whole entry, species assumed): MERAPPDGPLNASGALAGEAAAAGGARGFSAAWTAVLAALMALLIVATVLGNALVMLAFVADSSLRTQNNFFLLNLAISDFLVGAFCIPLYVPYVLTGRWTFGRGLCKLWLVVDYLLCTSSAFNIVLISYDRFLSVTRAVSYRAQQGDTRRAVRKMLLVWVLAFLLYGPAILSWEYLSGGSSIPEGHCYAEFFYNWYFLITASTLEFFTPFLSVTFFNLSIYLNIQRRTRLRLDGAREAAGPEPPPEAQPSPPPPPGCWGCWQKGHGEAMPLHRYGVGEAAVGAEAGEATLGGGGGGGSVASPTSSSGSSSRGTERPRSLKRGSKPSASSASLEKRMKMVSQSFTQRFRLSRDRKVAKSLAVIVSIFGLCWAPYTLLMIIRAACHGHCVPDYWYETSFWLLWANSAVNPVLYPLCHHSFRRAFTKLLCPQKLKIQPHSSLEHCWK
T5 sequence (P58406 whole entry): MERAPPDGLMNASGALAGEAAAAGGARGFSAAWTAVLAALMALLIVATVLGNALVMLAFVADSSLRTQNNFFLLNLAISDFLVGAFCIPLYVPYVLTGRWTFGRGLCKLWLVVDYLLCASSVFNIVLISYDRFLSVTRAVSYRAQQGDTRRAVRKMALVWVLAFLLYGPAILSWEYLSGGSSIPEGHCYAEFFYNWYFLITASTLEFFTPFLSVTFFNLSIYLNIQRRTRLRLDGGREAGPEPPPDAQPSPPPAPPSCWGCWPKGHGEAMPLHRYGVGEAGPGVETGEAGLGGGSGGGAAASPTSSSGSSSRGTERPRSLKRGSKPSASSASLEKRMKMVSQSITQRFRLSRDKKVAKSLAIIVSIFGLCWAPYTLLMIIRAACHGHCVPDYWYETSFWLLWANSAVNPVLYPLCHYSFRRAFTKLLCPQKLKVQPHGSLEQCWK
T2 sequence (Q99720 whole entry, species assumed): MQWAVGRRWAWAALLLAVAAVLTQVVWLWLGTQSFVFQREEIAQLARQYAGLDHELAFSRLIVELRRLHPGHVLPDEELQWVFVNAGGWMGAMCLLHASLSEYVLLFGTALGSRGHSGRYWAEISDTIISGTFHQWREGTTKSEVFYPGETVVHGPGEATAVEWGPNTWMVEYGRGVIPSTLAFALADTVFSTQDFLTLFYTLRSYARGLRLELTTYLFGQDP
T4 sequence (Q9QYN8 whole entry): as the sequence (P58406 whole entry) above, with A15T, T286A, G290A, H387R, V389I counted along it
Sequence of 5-hydroxytryptamine receptor 2A (5-HT2A) (P28223 whole entry, species assumed): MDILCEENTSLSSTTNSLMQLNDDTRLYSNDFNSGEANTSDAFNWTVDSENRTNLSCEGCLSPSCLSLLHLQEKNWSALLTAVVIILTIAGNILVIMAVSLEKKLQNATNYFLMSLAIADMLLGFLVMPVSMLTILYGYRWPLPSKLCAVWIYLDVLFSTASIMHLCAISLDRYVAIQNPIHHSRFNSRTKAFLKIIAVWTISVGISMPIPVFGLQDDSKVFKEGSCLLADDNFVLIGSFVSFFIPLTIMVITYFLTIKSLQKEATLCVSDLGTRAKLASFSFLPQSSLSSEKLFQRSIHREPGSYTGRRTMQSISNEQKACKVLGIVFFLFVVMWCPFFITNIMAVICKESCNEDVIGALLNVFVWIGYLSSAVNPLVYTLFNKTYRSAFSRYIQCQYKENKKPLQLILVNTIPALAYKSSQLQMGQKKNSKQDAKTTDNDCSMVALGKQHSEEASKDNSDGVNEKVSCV
Sequence of sigma-2 (Q5BJF2 whole entry): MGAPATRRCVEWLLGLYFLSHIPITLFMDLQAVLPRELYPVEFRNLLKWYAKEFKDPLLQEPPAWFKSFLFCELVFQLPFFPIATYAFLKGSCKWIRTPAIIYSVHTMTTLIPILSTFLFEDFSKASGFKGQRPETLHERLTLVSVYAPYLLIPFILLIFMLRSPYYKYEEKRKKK

Work on `O=C([C@H]1C[C@@H]1c1ccc(F)cc1)N1CCN(C2CCCCCC2)CC1` [Compound 5, (4-Cycloheptylpiperazin-1-yl)((1S,2S)-2-(4-fluorophenyl)cyclopropyl)methanone] yielded an IC50 (H3R [1]) greater than 1000 nM and a Ki (H3R [1]) greater than 1000 nM.
`O=C([C@H]1C[C@@H]1c1ccc(F)cc1)N1C[C@@H]2CN(C3CCC3)C[C@@H]2C1` [Compound 8, ((3aR,6aS)-5-Cyclobutylhexahydropyrrolo[3,4-c]pyrrol-2(1H)-yl)((1S,2S)-2-(4-fluorophenyl)cyclopropyl)methanone] showed an IC50 (H3R [1]) greater than 1000 nM and a Ki (H3R [1]) greater than 1000 nM.
For `O=C([C@H]1C[C@@H]1c1ccc(F)cc1)N1CCN(C2CCC2)CC1` [Compound 2, (4-Cyclobutylpiperazin-1-yl)((1S,2S)-2-(4-fluorophenyl)cyclopropyl)methanone], the logD [2] was 2.76, the inhibition at 10 µM (sigma-1 receptor [3]) was 98.1% and the Ki (sigma-1 receptor [4]) was 1.61 nM.
For `[11CH3]NC(=O)c1ccc([C@H]2C[C@@H]2C(=O)N2CCN(C3CCC3)CC2)cc1` [AZD13153556, reference compound], the IC50 (H3R [1]) was 23.5 nM.
In the case of `O=C([C@H]1C[C@@H]1c1ccc(F)cc1)N1CCN(C2CCCC2)CC1` [Compound 3, (4-Cyclopentylpiperazin-1-yl)((1S,2S)-2-(4-fluorophenyl)cyclopropyl)methanone], the logD [2] is reported as 2.82, the inhibition at 10 µM (sigma-1 receptor [3]) is reported as 93.2% and the inhibition at 10 µM [5] is reported as 64.5%. For the same molecule, the CNS target selectivity [6] was “over 300 fold”, the “selectivity of H3R over sigma-1” value (sigma-1 receptor [4]) was 69 fold and the Ki (sigma-1 receptor [4]) was 199 nM. The Ki (5-HT2C [7]) was greater than 1000 nM.
Work on `O=C([C@H]1C[C@@H]1c1ccc(F)cc1)N1CCN(C2CCCCC2)CC1` [Compound 4, (4-Cyclohexylpiperazin-1-yl)((1S,2S)-2-(4-fluorophenyl)cyclopropyl)methanone] yielded a logD [2] of 3.35, an inhibition at 10 µM (sigma-1 receptor [3]) of 94.4% and an inhibition at 10 µM (sigma-2) of 93.6%. For the same molecule, the inhibition at 10 µM [5] was 59%, the inhibition at 10 µM (5-HT2C [8]) was 80.3% and the CNS target selectivity [6] was “over 300 fold”. The “selectivity of H3R over sigma-1” value (sigma-1 receptor [4]) was 407 fold, the Ki (sigma-1 receptor [4]) was 1280 nM and the Ki (5-HT2C [7]) was greater than 1000 nM.
Work on `O=C([C@H]1C[C@@H]1c1ccc(F)cc1)N1CC2(C1)CN(C1CCC1)C2` [Compound 6, (6-Cyclobutyl-2,6-diazaspiro[3.3]heptan-2-yl)((1S,2S)-2-(4-fluorophenyl)cyclopropyl)methanone] yielded an IC50 (H3R [1]) greater than 1000 nM and a Ki (H3R [1]) greater than 1000 nM.
In the case of `O=C([C@H]1C[C@@H]1c1ccc(F)cc1)N1C[C@@H]2C[C@H]1CN2C1CCC1` [Compound 7, ((1S,4S)-5-Cyclobutyl-2,5-diazabicyclo[2.2.1]heptan-2-yl)((1S,2S)-2-(4-fluorophenyl)cyclopropyl)methanone], the IC50 (H3R [1]) is reported as greater than 1000 nM and the Ki (H3R [1]) is reported as greater than 1000 nM.
For `O=C([C@H]1C[C@@H]1c1ccc([18F])cc1)N1CCN(C2CCCCC2)CC1` [[^18F]4], the logD [2] was 3.35, the “reduction in radioactivity across brain regions, GSK189254 blocking” value (H3R [9]; GSK189254 10 μM) was 38.7–68.2% and the “signal reduction, self-blocking with unlabeled compound” value (H3R [9]; unlabeled 3 or 4 at 10 μM) was 66.6–78.8%. For the same molecule, the “whole-brain signal reduction based on AUC, GSK189254 blocking” value (H3R [10]; GSK189254 3 mg/kg, 0–60 min) was “did not yield a significant reduction”, the “time of peak whole-brain uptake” value (H3R [10]; baseline, CD1 mice) was 4.3 min and the “whole-brain uptake at 60 min” value (H3R [10]; baseline, CD1 mice) was 1.77 SUV. The peak whole-brain uptake (H3R [10]; baseline, intravenous injection, CD1 mice) was 1.83 SUV and the “reduction in whole-brain uptake from peak after 60 min dynamic scan” value (H3R [10]; baseline, washout) was 3.3%.
`O=C([C@H]1C[C@@H]1c1ccc(-c2ccc([18F])nc2)cc1)N1CCN(C2CCC2)CC1` [[^18F]H3-2404, reference compound] showed a Ki (H3R [1]) of 10.2 nM.
